Patent publication US6423689B1, “Peptidyl calcium channel blockers” (Warner-Lambert Company, priority 1997, dated 2002)

How the values were obtained:
[1] = biological target: T1, N-type Ca2+ channels in IMR-32 cells (Homo sapiens, UniProt Q00975); assay: Inhibition of N-type calcium flux in IMR-32 cells (Indo-1 fluorescence, nitrendipine present); assay type: cell-based; conditions: for IC50: IMR-32 cells, 5 μM nitrendipine, K+ depolarization
T1 construct: host or cells: IMR-32 cells, differentiated with dibutyryl cAMP and bromodeoxyuridine
Outline: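 With L-type flux blocked by 5 μM nitrendipine, N-type Ca2+ entry was read as the Indo-1 emission ratio (400/490 nm, excitation 350 nm) at 30° C after KCl depolarization.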

[2] = biological target: T2, N-type Ca2+ channels in superior cervical ganglion (SCG) neurons (Rattus norvegicus, UniProt Q02294); assay: Whole-cell voltage clamp, N-type Ca2+ current in SCG neurons; assay type: cell-based; conditions: 10 μM
T2 construct: from tissue
Protocol: Electrophysiological techniques were used to measure the effects of experimental compounds on voltage-gated Ca^2+, Na^+ and K^+ channels. […] Sodium and potassium channel currents were measured from acutely dissociated SCG neurons.
Dissociation of the neurons from the ganglia was accomplished using a 30 to 45 minute treatment in 0.25% trypsin, similar to methods outlined in Higgins, et al. [see Higgins D., et al. “Tissue culture of mammalian autonomic neurons.” In Banker G. and Goslin K. (Eds), Culturing Nerve Cells, Cambridge, Mass., MIT Press (1991)].
Ca^2+, Na^+ and K^+ channel currents in SCG neurons were measured using conventional single electrode whole-cell voltage-clamp techniques, outlined in Hamill, et al., (see Hamill O.P., et al. “Improved patch-clamp techniques for high resolution current recordings from cells and cell-free membrane patches”. Pflugers Arch. 1981;391:85-100) For Ca^2+ channel experiments, the external bathing solution contained tetraethylammonium chloride (100 mM), choline chloride (52 mM), NaCl (15 mM), HEPES (10 mM), glucose (5.6 mM), CaCl2 (2 mM), and MgCl2 (0.8 mM) pH 7.35 with KOH; with the internal pipette solution containing cesium methane sulfonate (140 mM), EGTA (10 mM), and HEPES (10 mM), supplemented with 5 mM Mg^2+ -ATP on the day of the experiment, pH 7.4 with CsOH. For Na^+ and K^+ channel experiments, the external bathing solution contained NaCl (150 mM), KCl (5 mM), MgCl2 (1.1 mM), CaCl2 (2.6 mM), Na-HEPES (10 mM), and glucose (10 mM), pH 7.4; with the internal pipette solution containing KCl (80 mM), K-gluconate (50 mM), HEPES (10 mM), and EGTA (10 mM), pH 7.4 with KOH. Experimental compounds were diluted into the external solution and applied to the soma of cells by local perfusion from large diameter (20-50 μm) glass micropipettes or from a U-tube applicator.
After obtaining a whole-cell recording, Ca^2+ channels were elicited by stepping to test potentials between −40 and +20 mV for 120 msec from the holding potential of −90 mV to determine if the amplitude of the current and clamp control were adequate for evaluation of drug effects. Ca^2+ channel currents were evoked by stepping from a holding potentials between −65 mV and −−55 mV to a test potential of +20 mV for 150 msec every 40 seconds. The amplitude of the Ca^2+ channel currents were compared before and during drug application and drug effects expressed as percent inhibition of the amplitude of control currents.

T1 sequence (Q00975 whole entry): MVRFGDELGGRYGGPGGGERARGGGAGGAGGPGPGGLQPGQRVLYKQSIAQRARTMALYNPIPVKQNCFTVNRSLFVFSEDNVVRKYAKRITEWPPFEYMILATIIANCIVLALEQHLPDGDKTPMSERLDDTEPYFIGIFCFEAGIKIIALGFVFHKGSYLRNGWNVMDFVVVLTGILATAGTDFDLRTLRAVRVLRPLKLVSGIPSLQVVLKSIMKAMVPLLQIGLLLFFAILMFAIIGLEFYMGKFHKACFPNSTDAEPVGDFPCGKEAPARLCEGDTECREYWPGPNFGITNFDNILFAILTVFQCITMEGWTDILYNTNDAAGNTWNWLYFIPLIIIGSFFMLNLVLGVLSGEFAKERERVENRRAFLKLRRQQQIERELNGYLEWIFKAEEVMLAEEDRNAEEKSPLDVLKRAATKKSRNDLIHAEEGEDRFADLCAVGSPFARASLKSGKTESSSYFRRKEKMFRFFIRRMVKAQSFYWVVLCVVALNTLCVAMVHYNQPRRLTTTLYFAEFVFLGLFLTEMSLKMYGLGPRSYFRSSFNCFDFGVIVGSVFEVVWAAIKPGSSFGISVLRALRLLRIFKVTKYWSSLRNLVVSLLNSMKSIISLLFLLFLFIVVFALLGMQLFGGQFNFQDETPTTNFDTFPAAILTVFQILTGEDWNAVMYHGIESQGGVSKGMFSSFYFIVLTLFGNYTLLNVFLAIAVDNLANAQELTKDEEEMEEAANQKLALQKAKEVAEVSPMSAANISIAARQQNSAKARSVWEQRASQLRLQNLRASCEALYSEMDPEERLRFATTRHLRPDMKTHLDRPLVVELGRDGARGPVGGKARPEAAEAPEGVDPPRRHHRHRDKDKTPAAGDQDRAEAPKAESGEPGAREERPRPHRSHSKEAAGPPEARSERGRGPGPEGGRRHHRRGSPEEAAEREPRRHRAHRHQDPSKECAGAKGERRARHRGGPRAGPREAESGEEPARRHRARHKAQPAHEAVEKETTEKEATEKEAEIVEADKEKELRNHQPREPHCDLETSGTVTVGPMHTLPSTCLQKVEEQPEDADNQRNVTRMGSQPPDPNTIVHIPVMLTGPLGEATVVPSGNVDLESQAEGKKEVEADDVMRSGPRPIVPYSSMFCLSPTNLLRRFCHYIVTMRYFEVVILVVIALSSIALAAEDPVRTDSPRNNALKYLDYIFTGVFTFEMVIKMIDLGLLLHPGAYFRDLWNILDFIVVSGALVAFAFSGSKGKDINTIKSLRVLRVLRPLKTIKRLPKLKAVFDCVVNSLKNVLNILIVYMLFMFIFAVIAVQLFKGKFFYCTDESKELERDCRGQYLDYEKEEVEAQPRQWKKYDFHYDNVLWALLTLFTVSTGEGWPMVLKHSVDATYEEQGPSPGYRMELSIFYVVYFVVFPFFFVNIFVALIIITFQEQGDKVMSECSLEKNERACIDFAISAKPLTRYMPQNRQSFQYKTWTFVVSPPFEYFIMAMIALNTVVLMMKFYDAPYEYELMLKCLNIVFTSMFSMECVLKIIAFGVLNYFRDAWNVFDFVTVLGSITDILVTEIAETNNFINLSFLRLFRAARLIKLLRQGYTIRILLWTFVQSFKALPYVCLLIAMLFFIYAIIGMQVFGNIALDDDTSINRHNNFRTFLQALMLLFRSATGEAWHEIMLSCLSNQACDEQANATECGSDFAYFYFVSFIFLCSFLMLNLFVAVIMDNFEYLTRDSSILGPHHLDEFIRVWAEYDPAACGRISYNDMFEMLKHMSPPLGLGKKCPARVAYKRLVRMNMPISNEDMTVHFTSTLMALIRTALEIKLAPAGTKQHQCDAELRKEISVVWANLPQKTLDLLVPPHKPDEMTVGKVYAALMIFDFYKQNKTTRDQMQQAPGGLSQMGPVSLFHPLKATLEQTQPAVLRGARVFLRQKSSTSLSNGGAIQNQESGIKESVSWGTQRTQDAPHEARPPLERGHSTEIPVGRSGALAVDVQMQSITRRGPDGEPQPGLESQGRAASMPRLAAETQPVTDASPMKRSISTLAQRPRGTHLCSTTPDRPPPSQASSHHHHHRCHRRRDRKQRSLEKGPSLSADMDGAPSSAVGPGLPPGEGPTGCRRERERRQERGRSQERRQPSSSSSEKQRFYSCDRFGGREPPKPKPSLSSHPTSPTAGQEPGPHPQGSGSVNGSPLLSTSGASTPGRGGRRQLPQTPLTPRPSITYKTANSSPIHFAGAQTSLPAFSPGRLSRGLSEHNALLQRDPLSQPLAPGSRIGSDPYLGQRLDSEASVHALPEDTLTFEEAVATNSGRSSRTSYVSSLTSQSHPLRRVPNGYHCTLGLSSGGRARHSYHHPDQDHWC
T1 sequence (P54289 25-956 partner limits assumed): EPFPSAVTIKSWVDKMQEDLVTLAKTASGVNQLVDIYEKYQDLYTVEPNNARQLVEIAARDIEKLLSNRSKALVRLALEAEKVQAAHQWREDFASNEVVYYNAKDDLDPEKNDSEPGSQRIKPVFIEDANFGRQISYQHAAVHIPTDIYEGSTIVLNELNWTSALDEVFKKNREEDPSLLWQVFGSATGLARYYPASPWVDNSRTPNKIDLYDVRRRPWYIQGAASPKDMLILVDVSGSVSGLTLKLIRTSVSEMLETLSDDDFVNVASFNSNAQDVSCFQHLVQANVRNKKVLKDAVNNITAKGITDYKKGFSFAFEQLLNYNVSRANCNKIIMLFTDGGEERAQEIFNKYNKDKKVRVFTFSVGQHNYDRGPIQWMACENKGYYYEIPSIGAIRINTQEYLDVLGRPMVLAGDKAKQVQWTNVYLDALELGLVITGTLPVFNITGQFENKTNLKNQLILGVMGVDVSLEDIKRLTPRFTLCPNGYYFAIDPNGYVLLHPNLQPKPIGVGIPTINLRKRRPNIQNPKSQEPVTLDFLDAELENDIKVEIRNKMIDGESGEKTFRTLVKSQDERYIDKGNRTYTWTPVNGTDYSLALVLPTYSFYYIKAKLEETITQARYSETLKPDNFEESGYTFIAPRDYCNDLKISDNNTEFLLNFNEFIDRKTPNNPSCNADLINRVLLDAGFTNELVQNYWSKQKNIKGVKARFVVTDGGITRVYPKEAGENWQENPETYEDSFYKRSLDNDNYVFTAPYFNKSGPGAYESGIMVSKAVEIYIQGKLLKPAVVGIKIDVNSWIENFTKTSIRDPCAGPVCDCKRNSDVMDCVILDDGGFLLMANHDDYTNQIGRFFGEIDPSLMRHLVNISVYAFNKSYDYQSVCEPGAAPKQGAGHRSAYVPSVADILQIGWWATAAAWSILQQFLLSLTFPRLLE
T1 sequence (P54289 957-1103 partner limits assumed): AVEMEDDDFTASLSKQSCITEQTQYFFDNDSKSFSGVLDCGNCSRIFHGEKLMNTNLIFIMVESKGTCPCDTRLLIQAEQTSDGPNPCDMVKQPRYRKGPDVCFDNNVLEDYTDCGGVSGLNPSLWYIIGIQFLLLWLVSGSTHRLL
T1 sequence (P54284 whole entry partner): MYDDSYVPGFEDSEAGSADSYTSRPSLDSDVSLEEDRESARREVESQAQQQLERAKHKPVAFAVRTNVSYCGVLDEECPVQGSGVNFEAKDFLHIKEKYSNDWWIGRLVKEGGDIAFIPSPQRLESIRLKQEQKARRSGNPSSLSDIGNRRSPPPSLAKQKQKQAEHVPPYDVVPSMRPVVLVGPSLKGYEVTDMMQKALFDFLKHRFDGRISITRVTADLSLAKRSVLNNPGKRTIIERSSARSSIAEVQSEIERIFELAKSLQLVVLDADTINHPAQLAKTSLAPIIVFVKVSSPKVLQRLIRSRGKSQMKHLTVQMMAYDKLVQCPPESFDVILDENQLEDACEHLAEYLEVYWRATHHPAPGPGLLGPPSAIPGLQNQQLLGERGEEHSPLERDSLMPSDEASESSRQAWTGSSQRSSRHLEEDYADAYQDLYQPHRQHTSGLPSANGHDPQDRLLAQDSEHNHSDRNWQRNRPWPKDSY

SMILES	Inhibition of Calcium Flux in IMR-32 Cells % Inhibition at 10 μM [1]	Inhibition of Calcium Flux in IMR-32 Cells % Inhibition at 1 μM [1]	also measured
CC(C)C[C@H](NC(=O)N1CCCCCC1)C(=O)N[C@@H](Cc1ccc(OCc2ccccc2)cc1)C(=O)N[C@H]1CCN(Cc2ccccc2)C1 [Example 194, Azepane-1-carboxylic acid {(S)-1-[(S)-2-(4-benzyloxy-phenyl)-1-[1-benzyl-(S)-pyrrolidin-3-ylcarbamoyl]-ethylcarbamoyl]-3-methyl-butyl}-amide]			IC50 [1]: 450 nM; inhibition at 10 µM [2]: 84%
CC(=O)N[C@H]1CCN(C(=O)[C@H](Cc2ccc(OCc3ccccc3)cc2)NC(=O)[C@H](CC(C)C)NC(=O)N2CCCCCC2)C1 [Example 244]	73%	24%	
CC(C)C[C@H](NC(=O)N1CCCCCC1)C(=O)N[C@@H](Cc1ccc(OCc2ccccc2)cc1)C(=O)NCCN1CCCC1=O [Example 170, [S-(R*,R*)]-Azepane-1-carboxylic acid (1-{2-(4-benzyloxy-phenyl)-1-[2-(2-oxo-pyrrolidin-1yl)-ethylcarbamoyl]-ethylcarbamoyl}-3-methyl-butyl)-amide]			IC50 [1]: 1300 nM
COc1cc(C(=O)NC(CC(C)C)C(=O)N[C@@H](Cc2ccc(OCc3ccccc3)cc2)C(=O)OC(C)(C)C)cc(OC)c1OC (stereo in doubt) [Example 92, [S(R*,R*)]-3-(4-Benzyloxy-phenyl)-2-[4-methyl-2-(3,4,5-trimethoxy-benzoylamino)-pentanoylamino]-propionic acid tert-butyl ester]	65%	1%	
CC(C)C[C@H](NC(=O)N1CCCCCC1)C(=O)N[C@@H](Cc1ccc(OCc2ccccc2)cc1)C(=O)N1CCC(Cc2ccccc2)CC1 [Example 265, [S-(R*,R*)]-Azepane-1-carboxylic acid {1-[1-(4-benzyloxy-benzyl)-2-(4-benzyl-piperidin-1-yl)-2-oxo-ethylcarbamoyl]-3-methyl-butyl}-amide]			IC50 [1]: 1000 nM
CC(C)C[C@H](NC(=O)N1CCCCCC1)C(=O)N[C@@H](Cc1ccc(OCc2ccccc2)cc1)C(=O)N1CCN(CCOCCO)CC1 (relative stereo) [Example 228, [S-(R*,R*)]-Azepane-1-carboxylic acid-[1-(1-(4-benzyloxy-benzyl)-2-{4-[2-(2-hydroxy-ethoxy)-ethyl]-piperazin-1-yl}-2-oxo-ethylcarbamoyl)-3-methyl-butyl]-amide]	82%	24%	
O=C(NCCN1CCCCC1)[C@H](Cc1ccc(OCc2ccccc2)cc1)NC(=O)[C@@H]1CCCN1C(=O)N1CCCCCC1 [Example 152, [S-(R*,R*)]-1-(Azepane-1-carbonyl)-pyrrolidine-2-carboxylic acid [2-(4-benzyloxy-phenyl)-1-(2-piperidin-1-yl-ethylcarbamoyl)-ethyl]-amide]			IC50 [1]: 1900 nM
COc1ccccc1NC(=O)N[C@@H](CC(C)C)C(=O)N[C@@H](Cc1ccc(OCc2ccccc2)cc1)C(=O)OC(C)(C)C (relative stereo) [Example 71, [S-(R*,R*)]-3-(4-Benzyloxy-phenyl)-2-{2-[3-(2-methoxy-phenyl)-ureido]-4-methyl-pentanoylamino}-propionic acid tert-butyl ester]		55%	
COc1ccc(COc2ccc(C[C@H](NC(=O)[C@H](CC(C)C)NC(=O)N3CCCCCC3)C(=O)OC(C)(C)C)cc2)cc1 [Example 32, [S-(R*,R*)]-2-{2-[(Azepane-1-carbonyl)-amino]-4-methyl-pentanoylamino}-3-[4-(4-methoxy-benzyloxy)-phenyl]-propionic acid tert-butyl ester]			inhibition at 1 µM ([1]; IMR-32): 52%; inhibition at 10 µM ([1]; IMR-32): 86%; IC50 [1]: 820 nM
CC(C)C[C@H](NC(=S)Nc1ccc(Br)cc1)C(=O)N[C@@H](Cc1ccc(OCc2ccccc2)cc1)C(=O)OC(C)(C)C (relative stereo) [Example 45, [S-(R*,R*)]-3-(4-Benzyloxy-phenyl)-2-{2-[3-(4-bromophenyl)-thioureido]-4-methyl-pentanoyl-amino}-propionic acid, tert-butyl ester]	68%	29%	
CC(C)C[C@H](NC(=O)Nc1ccc(F)cc1F)C(=O)N[C@@H](Cc1ccc(OCc2ccccc2)cc1)C(=O)OC(C)(C)C (relative stereo) [Example 69, [S-(R*,R*)]-3-(4-Benzyloxy-phenyl)-2-{2-[3-(2,4-difluoro-phenyl)-ureido]-4-methyl-pentanoylamino}-propionic acid tert-butyl ester]		31%	
COc1ccc(C(=O)N[C@@H](CC(C)C)C(=O)N[C@@H](Cc2ccc(OCc3ccccc3)cc2)C(=O)OC(C)(C)C)cc1OC (relative stereo) [Example 100, [S-(R*,R*)]-3-(4-Benzyloxy-phenyl)-2-[2-(3,4-dimethoxy-benzoylamino)-4-methyl-pentanoylamino]-propionic acid tert-butyl ester]		18%	

More lines, main results first:

Inhibition of Calcium Flux in IMR-32 Cells % Inhibition at 10 μM [1]	Inhibition of Calcium Flux in IMR-32 Cells % Inhibition at 1 μM [1]	SMILES	also measured
78%		CC(C)C[C@H](NC(=O)c1ccccc1)C(=O)N[C@@H](Cc1ccc(OCc2ccccc2)cc1)C(=O)OC(C)(C)C (relative stereo) [Example 130, [S-(R*,R*)]-2-(2-Benzoylamino-4-methyl-pentanoylamino)-3-(4-benzyloxy-phenyl)-propionic acid tert-butyl ester]	Inhibition of N-type Ca2+ Current, % Inhibition at 10 μM [2]: −7%
84%		CC(C)C[C@H](NC(=O)Cc1cccs1)C(=O)N[C@@H](Cc1ccc(OCc2ccccc2)cc1)C(=O)OC(C)(C)C (relative stereo) [Example 122, [S-(R*,R*)]-3-(4-Benzyloxy-phenyl)-2-[4-methyl-2-(2-thiophen-2-yl-acetylamino)pentanoylamino]-propionic acid tert-butyl ester]	
38%	17%	CC(C)C[C@H](NC(=S)Nc1ccc(C(C)C)cc1)C(=O)N[C@@H](Cc1ccc(OCc2ccccc2)cc1)C(=O)OC(C)(C)C (relative stereo) [Example 43, [S-(R*,R*)]-3-(4-Benzyloxy-phenyl)-2-{2-[3-(4-isopropyl-phenyl)-thioureido]-4-methyl-pentanoylamino}-propionic acid, tert-butyl ester]	
66%		CCC(=O)N[C@@H](CC(C)C)C(=O)N[C@@H](Cc1ccc(OCc2ccccc2)cc1)C(=O)OC(C)(C)C (relative stereo) [Example 117, [S-(R*,R*)]-3-(4-Benzyloxy-phenyl)-2-(4-methyl-2-propionylamino-pentanoylamino)-propionic acid tert-butyl ester]	
71%		CC(C)C[C@H](NC(=O)C(C)C)C(=O)N[C@@H](Cc1ccc(OCc2ccccc2)cc1)C(=O)OC(C)(C)C (relative stereo) [Example 115, [S-(R*,R*)]-3-(4-Benzyloxy-phenyl)-2-(2-isobutyrylamino-4-methyl-pentanoylamino)-propionic acid tert-butyl ester]	
80%		CCCC(=O)N[C@@H](CC(C)C)C(=O)N[C@@H](Cc1ccc(OCc2ccccc2)cc1)C(=O)OC(C)(C)C (relative stereo) [Example 118, [S-(R*,R*)]-3-(4-Benzyloxy-phenyl)-2-(2-butyrylamino-4-methyl-pentanoylamino)-propionic acid tert-butyl ester]	
